# From patent US20220000873A1, “S3QELS TO PROTECT AGAINST INTESTINAL PERMEABILITY” (Buck Institute for Research on Aging, priority 2018, published 2022)
# Legend:
# [1] = test system: C57BL/6 mice fed a high-fat diet; experiment: Mouse intestinal gene expression (qPCR, colon and distal small intestine); assay type: in vivo; details: high-fat diet with 200 mg/kg S3QEL, 16 weeks
# Procedure: Six-week-old C57BL/6 mice were purchased from Jackson Laboratories and acclimated in-house for two weeks before the study. At 8 weeks of age, mice were randomized into groups based on weight and fed either a control semi-purified diet D12450J containing 10% fat kcal, a 60% fat kcal diet D12492, or a custom-mixed 60% fat kcal diet D12492 containing 200 mg/kg of S3QELs. Diets were purchased from Research Diets and were gamma-irradiated. Mice were maintained on the experimental diets for 16 weeks in total. Food consumption was measured daily in a semiquantitative fashion. The food was weighed before placing in the cage, and then weighed again 24 h later. […]
# RNA from the fly intestine lysates, and the aqueous phase from the mouse intestinal Trizol lysates, were further processed to isolate RNA using a Quick-RNA™ MiniPrep Kit (Zymo Research) according to the manufacturer's guidelines. […] The quantity and quality of fly and mouse RNA samples were determined using a NanoDrop 1000 spectrophotometer (Thermo Scientific). 1 μg of total RNA from either fly or mouse intestine was used in a total reaction volume of […] containing 4 μL of iScript Reverse Transcription Supermix (Bio-Rad) to synthesize cDNA according to the manufacturer's guidelines. cDNA was stored at −20° C. before carrying out quantitative RTPCR. […]
# [2] = test system: C57BL/6 mice fed a high-fat diet; experiment: Mouse intestinal permeability (plasma FITC-dextran after gavage and fecal albumin); assay type: in vivo; details: high-fat diet (60% kcal) with 200 mg/kg S3QEL in diet, 16 weeks; plasma FITC-dextran and fecal albumin (FIG. 5A, B)
# Procedure: Six-week-old C57BL/6 mice were purchased from Jackson Laboratories and acclimated in-house for two weeks before the study. At 8 weeks of age, mice were randomized into groups based on weight and fed either a control semi-purified diet D12450J containing 10% fat kcal, a 60% fat kcal diet D12492, or a custom-mixed 60% fat kcal diet D12492 containing 200 mg/kg of S3QELs. Diets were purchased from Research Diets and were gamma-irradiated. Mice were maintained on the experimental diets for 16 weeks in total. Food consumption was measured daily in a semiquantitative fashion. The food was weighed before placing in the cage, and then weighed again 24 h later. The total food weight difference within 24 h was divided by the number of mice in the cage to determine average food consumption per mouse. All experiments involving the use of mice were reviewed and approved by the Institutional Animal Care and Use Committee (IACUC) of the Buck Institute.
# Mice were fasted for 4 h prior to assay. […] Blood plasma samples were diluted appropriately using 1×PBS and FITC-dextran fluorescence was measured at Ex 485 nm/Em 535 nm. FITC-dextran amount was determined using standard curves generated from a known amount of FITC-dextran titrated in plasma from control or high fat-fed mice. […]
smiles,measurement,setting,value
Cc1ccc(-n2ncc3c(N(Cc4ccccc4)C(C)C)ncnc32)cc1Cl [S3QEL2.2],decrease in tight-junction gene expression,"[1]; both colon and distal small intestine (FIG. 5C, FIG. 11)",protected against the decrease
same,decrease in mucin gene expression,"[1]; both colon and distal small intestine (FIG. 5D, FIG. 11)",protected against the decrease
same,increases in intestinal permeability in mice,[2],strongly protected
